What was measured:
Assay type in all cases: cell-based
MM1S cells = test: MTT cell proliferation assay (MM1S); conditions: Homo sapiens, MM1.S; MM1S multiple myeloma cells; approximately 64-72 hours incubation; 1 nM to 30 μM
Protocol: (§1) The MTT cell proliferation assay was used to study the cytotoxic properties of the compounds. The assay was performed according to the method described by Roche Molecular Biochemicals, with minor modifications. The assay is based on the cleavage of the tetrazolium salt, MTT, in the presence of an electron-coupling reagent. The water-insoluble formazan salt produced must be solubilized in an additional step. Cells grown in a 96-well tissue culture plate were incubated with the MTT solution for approximately 4 hours. After this incubation period, a water-insoluble formazan dye formed. After solubilization, the formazan dye was quantitated using a scanning multi-well spectrophotometer (ELISA reader). […] The cells were seeded at 5,000-10,000 cells in each well of 96-well plate in 100 μL of fresh culture medium and were allowed to attach overnight. The stock solutions of the compounds were diluted in 100 μL cell culture medium to obtain eight concentrations of each test compound, ranging from 1 nM to 30 μM. […] All optical densities were measured at 490 nm using a Vmax Kinetic Microplate Reader (Molecular Devices). In most cases, the assay was performed in duplicate and the results were presented as a mean percent inhibition to the negative control±SE. The following formula was used to calculate the percent of inhibition: Inhibition (%)=(1−(ODo/OD))×100.
(§2) The compounds were tested against Z138, MM1S and 3T3 cells. The Z138 cell line is a mature B-cell acute lymphoblastic leukemia cell line derived from a patient with chronic lumphocytic leukemia. The MM1S cell line was established from the peripheral blood of a human multiple myeloma patient. 3T3 cells are standard fibroblast cells; they were originally isolated from Swiss mouse embryo tissue.

Z138 cells = test: MTT cell proliferation assay (Z138); conditions: Homo sapiens, Z-138, approximately 64-72 hours incubation, 1 nM to 30 μM
Protocol: as §1, §2

3T3 cells = test: MTT cell proliferation assay (3T3); conditions: Mus musculus, NIH3T3; 3T3 fibroblast cells; approximately 64-72 hours incubation; 1 nM to 30 μM
Protocol: as §1, §2

| Compound | IC50 (MM1S cells) | IC50 (Z138 cells) | IC50 (3T3 cells) |
| --- | --- | --- | --- |
| NC(=O)/C(=C/n1cnc(-c2cc(C(F)(F)F)cc(C(F)(F)F)c2)n1)c1cccc(S(=O)(=O)N2CCCC2)c1 [Compound 125, (E)-3-(3-(3,5-bis(trifluoromethyl)phenyl)-1H-1,2,4-triazol-1-yl)-2-(3-(pyrrolidin-1-ylsulfonyl)phenyl)acrylamide] | 100 to 5000 nM | 100 to 5000 nM | > 30 µM |
| NC(=O)/C(=C/n1cnc(-c2cc(C(F)(F)F)cc(C(F)(F)F)c2)n1)c1ccc(S(=O)(=O)N2CCCCC2)cc1 [Compound 109, (E)-3-(3-(3,5-bis(trifluoromethyl)phenyl)-1H-1,2,4-triazol-1-yl)-2-(4-(piperidin-1-ylsulfonyl)phenyl)acrylamide] | 100 to 5000 nM | 100 to 5000 nM | 0.1 to 5 µM |
| NC(=O)/C(=C/n1cnc(-c2cc(C(F)(F)F)cc(C(F)(F)F)c2)n1)c1cccc(S(=O)(=O)N2CCC(F)(F)CC2)c1 [Compound 122, (E)-3-(3-(3,5-bis(trifluoromethyl)phenyl)-1H-1,2,4-triazol-1-yl)-2-(3-(4,4-difluoropiperidin-1-ylsulfonyl)phenyl)acrylamide] | 100 to 5000 nM | 100 to 5000 nM | > 30 µM |

Second part, led by results:

| IC50 (MM1S cells) | Compound | IC50 (Z138 cells) | IC50 (3T3 cells) |
| --- | --- | --- | --- |
| < 100 nM | NC(=O)/C(=C/n1cnc(-c2cc(C(F)(F)F)cc(C(F)(F)F)c2)n1)c1ccc(S(=O)(=O)N2CC(F)(F)C2)cc1 [Compound 111, (E)-3-(3-(3,5-bis(trifluoromethyl)phenyl)-1H-1,2,4-triazol-1-yl)-2-(4-(3,3-difluoroazetidin-1-ylsulfonyl)phenyl)acrylamide] | < 100 nM | 0.1 to 5 µM |
| < 100 nM | CS(=O)(=O)c1ccc(/C(=C\n2cnc(-c3cc(C(F)(F)F)cc(C(F)(F)F)c3)n2)C(N)=O)cc1 [Compound 103, (E)-3-(3-(3,5-bis(trifluoromethyl)phenyl)-1H-1,2,4-triazol-1-yl)-2-(4-(methylsulfonyl)phenyl)acrylamide] | 100 to 5000 nM | > 30 µM |
| < 100 nM | NC(=O)/C(=C/n1cnc(-c2cc(C(F)(F)F)cc(C(F)(F)F)c2)n1)c1ccc(S(=O)(=O)N2CCC(F)(F)CC2)cc1 [Compound 105, (E)-3-(3-(3,5-bis(trifluoromethyl)phenyl)-1H-1,2,4-triazol-1-yl)-2-(4-(4,4-difluoropiperidin-1-ylsulfonyl)phenyl)acrylamide] | < 100 nM | 0.1 to 5 µM |
| < 100 nM | NC(=O)/C(=C/n1cnc(-c2cc(C(F)(F)F)cc(C(F)(F)F)c2)n1)c1ccc(S(=O)(=O)N2CCCOCC2)cc1 [Compound 118, (E)-2-(4-(1,4-oxazepan-4-ylsulfonyl)phenyl)-3-(3-(3,5-bis(trifluoromethyl)phenyl)-1H-1,2,4-triazol-1-yl)acrylamide] | < 100 nM | 0.1 to 5 µM |

From patent US10526295B2, “Nuclear transport modulators and uses thereof” (Karyopharm Therapeutics Inc., priority 2015, dated 2020)
